From ChEMBL document CHEMBL1201861, “Genomics of Drug Sensitity in Cancer screening data, Wellcome Trust Sanger Institute”

Legend:
Assay in all cases: cells
COLO-824 = format: functional, cell-based, Homo sapiens; conditions: Homo sapiens, COLO-824
Description: SANGER: Inhibition of human COLO-824 cell growth in a cell viability assay.

CW-2 = format: functional, cell-based, Homo sapiens; conditions: Homo sapiens, CW-2;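 further: growth inhibition of CW-2 cells, read out by a cell viability assay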
Description: SANGER: Inhibition of human CW-2 cell growth in a cell viability assay.

DB = format: functional, cell-based, Homo sapiens; conditions: Homo sapiens, DB
Description: SANGER: Inhibition of human DB cell growth in a cell viability assay.

DEL = format: functional, cell-based, Homo sapiens; conditions: Homo sapiens, DEL;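 further: growth inhibition of the human DEL cell line, read out with a cell viability assay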
Description: SANGER: Inhibition of human DEL cell growth in a cell viability assay.

DMS-114 = format: functional, cell-based, Homo sapiens; conditions: Homo sapiens, DMS-114
DSH1 = format: functional, cell-based; conditions: Homo sapiens;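 further: growth inhibition of human DSH1 cells, measured with a cell viability readout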
Description: SANGER: Inhibition of human DSH1 cell growth in a cell viability assay.

ES3 = format: functional, cell-based, Homo sapiens; conditions: Homo sapiens, ES3;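 further: growth inhibition of ES3 cells, read out with a cell viability assay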
Description: SANGER: Inhibition of human ES3 cell growth in a cell viability assay.

ES8 = format: functional, cell-based, Homo sapiens; conditions: Homo sapiens, ES8;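 further: growth inhibition of human ES8 cells, read out with a cell viability assay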
Description: SANGER: Inhibition of human ES8 cell growth in a cell viability assay.

EOL1 = format: functional, cell-based, Homo sapiens; conditions: Homo sapiens, EOL1;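 further: growth inhibition of EoL-1 cells, read out by a cell viability assay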
Description: SANGER: Inhibition of human EoL-1-cell cell growth in a cell viability assay.

GB-1 = format: functional, cell-based, Homo sapiens; conditions: Homo sapiens, GB-1;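 further: growth of GB-1 cells judged by a viability assay, IC50 marks the concentration inhibiting growth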
Description: SANGER: Inhibition of human GB-1 cell growth in a cell viability assay.

GCIY = format: functional, cell-based, Homo sapiens; conditions: Homo sapiens, GCIY;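 further: growth inhibition of the human GCIY cell line, read out by a cell viability assay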
Description: SANGER: Inhibition of human GCIY cell growth in a cell viability assay.

GR-ST = format: functional, cell-based, Homo sapiens; conditions: Homo sapiens, GR-ST
Description: SANGER: Inhibition of human GR-ST cell growth in a cell viability assay.

GT3TKB = format: functional, cell-based, Homo sapiens; conditions: Homo sapiens, GT3TKB;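 further: growth inhibition of the cell line, read out with a cell viability assay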
Description: SANGER: Inhibition of human GT3TKB cell growth in a cell viability assay.

HAL-01 = format: functional, cell-based, Homo sapiens; conditions: Homo sapiens, HAL-01;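 further: growth inhibition of human HAL-01 cells, read out with a cell viability assay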
Description: SANGER: Inhibition of human HAL-01 cell growth in a cell viability assay.

HH = format: functional, cell-based, Homo sapiens; conditions: Homo sapiens, HH
Description: SANGER: Inhibition of human HH cell growth in a cell viability assay.

JAR = format: functional, cell-based, Homo sapiens; conditions: Homo sapiens, JAR;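 further: growth inhibition of human JAR cells determined with a cell viability assay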
Description: SANGER: Inhibition of human JAR cell growth in a cell viability assay.

K5 = format: functional, cell-based, Homo sapiens; conditions: Homo sapiens, K5
Description: SANGER: Inhibition of human K5 cell growth in a cell viability assay.

KM-H2 = format: functional, cell-based, Homo sapiens; conditions: Homo sapiens, KM-H2;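 further: growth inhibition of KM-H2 cells, read out by a cell viability assay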
Description: SANGER: Inhibition of human KM-H2 cell growth in a cell viability assay.

LB1047-RCC = format: functional, cell-based, Homo sapiens; conditions: Homo sapiens, LB1047-RCC;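 further: inhibition of cell growth, determined with a cell viability assay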
Description: SANGER: Inhibition of human LB1047-RCC cell growth in a cell viability assay.

LB2241-RCC = format: functional, cell-based, Homo sapiens; conditions: Homo sapiens, LB2241-RCC;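 further: cell viability assay measuring how strongly the cultured human renal carcinoma line is prevented from growing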
Description: SANGER: Inhibition of human LB2241-RCC cell growth in a cell viability assay.

LS-123 = format: functional, cell-based, Homo sapiens; conditions: Homo sapiens, LS-123
Description: SANGER: Inhibition of human LS-123 cell growth in a cell viability assay.

LS-411N = format: functional, cell-based, Homo sapiens; conditions: Homo sapiens, LS-411N
MC116 = format: functional, cell-based, Homo sapiens; conditions: Homo sapiens, MC116;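 further: growth inhibition of MC116 cells, read out with a cell viability assay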
Description: SANGER: Inhibition of human MC116 cell growth in a cell viability assay.

MHH-NB-11 = format: functional, cell-based, Homo sapiens; conditions: Homo sapiens, MHH-NB-11;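 further: growth inhibition of human MHH-NB-11 cells, read out by a cell viability assay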
Description: SANGER: Inhibition of human MHH-NB-11 cell growth in a cell viability assay.

MHH-PREB-1 = format: functional, cell-based, Homo sapiens; conditions: Homo sapiens, MHH-PREB-1;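 further: cell viability assay measuring inhibition of proliferation of human MHH-PREB-1 cells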
Description: SANGER: Inhibition of human MHH-PREB-1 cell growth in a cell viability assay.

MLMA = format: functional, cell-based, Homo sapiens; conditions: Homo sapiens, MLMA;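 further: growth inhibition of MLMA cells (human), determined through a cell viability readout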
Description: SANGER: Inhibition of human MLMA cell growth in a cell viability assay.

NB6 = format: functional, cell-based, Homo sapiens; conditions: Homo sapiens, NB6;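 further: growth inhibition of NB6 cells, read out by a cell viability assay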
Description: SANGER: Inhibition of human NB6 cell growth in a cell viability assay.

NCI-H1650 = format: functional, cell-based, Homo sapiens; conditions: Homo sapiens, NCI-H1650;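 further: growth inhibition of human NCI-H1650 cells measured by a cell viability assay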
Description: SANGER: Inhibition of human NCI-H1650 cell growth in a cell viability assay.

NCI-H526 = format: functional, cell-based, Homo sapiens; conditions: Homo sapiens, NCI-H526;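 further: growth inhibition of the human NCI-H526 cell line, measured by a cell viability assay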
Description: SANGER: Inhibition of human NCI-H526 cell growth in a cell viability assay.

NMC-G1 = format: functional, cell-based, Homo sapiens; conditions: Homo sapiens, NMC-G1;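 further: growth inhibition of the NMC-G1 cell line, measured with a cell viability read-out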
Description: SANGER: Inhibition of human NMC-G1 cell growth in a cell viability assay.

RS4-11 = format: functional, cell-based, Homo sapiens; conditions: Homo sapiens, RS4-11;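 further: growth inhibition of RS4-11 cells, read out by a cell viability assay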
Description: SANGER: Inhibition of human RS4-11 cell growth in a cell viability assay.

SCC-15 = format: functional, cell-based, Homo sapiens; conditions: Homo sapiens, SCC-15;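 further: growth inhibition of SCC-15 cells, read out with a cell viability assay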
Description: SANGER: Inhibition of human SCC-15 cell growth in a cell viability assay.

SF-268 = format: functional, cell-based, Homo sapiens; conditions: Homo sapiens, SF-268;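 further: growth inhibition of SF-268 cells determined with a cell viability assay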
Description: SANGER: Inhibition of human SF268 cell growth in a cell viability assay.

SJSA-1 = format: functional, cell-based, Homo sapiens; conditions: Homo sapiens, SJSA-1;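 further: growth inhibition of human SJSA-1 cells, read out through a cell viability measurement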
Description: SANGER: Inhibition of human SJSA-1 cell growth in a cell viability assay.

SW872 = format: functional, cell-based, Homo sapiens; conditions: Homo sapiens, SW872;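 further: growth inhibition of SW872 cells, read out by a viability assay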
Description: SANGER: Inhibition of human SW872 cell growth in a cell viability assay.

SW982 = format: functional, cell-based; conditions: Homo sapiens;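 further: growth inhibition of SW982 cells, read out with a cell viability assay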
Description: SANGER: Inhibition of human SW982 cell growth in a cell viability assay.

8-MG-BA = format: functional, cell-based, Homo sapiens; conditions: Homo sapiens, 8-MG-BA;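 further: growth inhibition of 8-MG-BA cells, read out with a cell viability assay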
Description: SANGER: Inhibition of human 8-MG-BA cell growth in a cell viability assay.

A253 cell line = format: functional, cell-based, Homo sapiens; conditions: Homo sapiens, A253;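 further: growth inhibition of A253 cells, read out with a cell viability assay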
Description: SANGER: Inhibition of human A253 cell growth in a cell viability assay.

A498 = format: functional, cell-based, Homo sapiens; conditions: Homo sapiens, A498;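 further: growth inhibition of human A498 cells, read out with a cell viability assay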
Description: SANGER: Inhibition of human A498 cell growth in a cell viability assay.

BB65-RCC = format: functional, cell-based, Homo sapiens; conditions: Homo sapiens, BB65-RCC;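 further: growth inhibition of the cell line, measured with a cell viability assay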
Description: SANGER: Inhibition of human BB65-RCC cell growth in a cell viability assay.

BE-13 = format: functional, cell-based, Homo sapiens; conditions: Homo sapiens, BE-13;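 further: growth inhibition of human BE-13 cells, measured with a cell viability assay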
Description: SANGER: Inhibition of human BE-13 cell growth in a cell viability assay.

BT-474 = format: functional, cell-based, Homo sapiens; conditions: Homo sapiens, BT-474
Description: SANGER: Inhibition of human BT-474 cell growth in a cell viability assay.

C2BBe1 = format: functional, cell-based, Homo sapiens; conditions: Homo sapiens, C2BBe1;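 further: growth inhibition of C2BBe1 cells, read out through a viability assay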
Description: SANGER: Inhibition of human C2BBe1 cell growth in a cell viability assay.

TE-11 = format: functional, cell-based; conditions: Homo sapiens;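 further: growth inhibition of human TE-11 cells, read out by a cell viability assay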
Description: SANGER: Inhibition of human TE-11 cell growth in a cell viability assay.

TE-9 = format: functional, cell-based, Homo sapiens; conditions: Homo sapiens, TE-9;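 further: cell growth inhibition, measured with a cell viability readout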
Description: SANGER: Inhibition of human TE-9 cell growth in a cell viability assay.

TGBC24TKB = format: functional, cell-based; conditions: Homo sapiens;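 further: growth inhibition of human TGBC24TKB cells, read out with a cell viability assay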
Description: SANGER: Inhibition of human TGBC24TKB cell growth in a cell viability assay.

TGW = format: functional, cell-based, Homo sapiens; conditions: Homo sapiens, TGW;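 further: growth inhibition of human TGW cells, read out with a cell viability assay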
Description: SANGER: Inhibition of human TGW cell growth in a cell viability assay.

no-10 = format: functional, cell-based, Homo sapiens; conditions: Homo sapiens;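 further: growth inhibition of no-10 cells, read out with a cell viability assay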
Description: SANGER: Inhibition of human no-10 cell growth in a cell viability assay.

COLO-320-HSR = format: functional, cell-based, Homo sapiens; conditions: Homo sapiens, COLO-320-HSR;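 further: growth inhibition of COLO-320-HSR cells, determined with a cell viability assay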
Description: SANGER: Inhibition of human COLO-320-HSR cell growth in a cell viability assay.

COLO-684 = format: functional, cell-based, Homo sapiens; conditions: Homo sapiens, COLO-684
Description: SANGER: Inhibition of human COLO-684 cell growth in a cell viability assay.

COc1ccc(-c2cc3nccn3c(Nc3ncccc3C(N)=O)n2)cc1OC
IC50 (COLO-824): > 8 µM
IC50 (CW-2): > 8 µM
IC50 (DB): 6.64 µM
IC50 (DEL): 3.07 µM
IC50 (DMS-114): > 8 µM
IC50 (DSH1): > 8 µM
IC50 (ES3): 3.03 µM
IC50 (ES8): 5.98 µM
IC50 (EOL1): 0.333 µM
IC50 (GB-1): 2.83 µM
IC50 (GCIY): > 8 µM
IC50 (GR-ST): 3.7 µM
IC50 (GT3TKB): > 8 µM
IC50 (HAL-01): > 8 µM
IC50 (HH): > 8 µM
IC50 (JAR): > 8 µM
IC50 (K5): 2.93 µM
IC50 (KM-H2): > 8 µM
IC50 (LB1047-RCC): 0.741 µM
IC50 (LB2241-RCC): 4.93 µM
IC50 (LS-123): > 8 µM
IC50 (LS-411N): 3.78 µM
IC50 (MC116): 2.51 µM
IC50 (MHH-NB-11): > 8 µM
IC50 (MHH-PREB-1): 2.55 µM
IC50 (MLMA): 0.993 µM
IC50 (NB6): > 8 µM
IC50 (NCI-H1650): > 8 µM
IC50 (NCI-H526): 5.28 µM
IC50 (NMC-G1): 7.55 µM
IC50 (RS4-11): 1.23 µM
IC50 (SCC-15): > 8 µM
IC50 (SF-268): 2.83 µM
IC50 (SJSA-1): 3.77 µM
IC50 (SW872): 1.18 µM
IC50 (SW982): 0.775 µM
IC50 (8-MG-BA): > 8 µM
IC50 (A253 cell line): > 8 µM
IC50 (A498): > 8 µM
IC50 (BB65-RCC): 5.13 µM
IC50 (BE-13): 2.7 µM
IC50 (BT-474): > 8 µM
IC50 (C2BBe1): > 8 µM
IC50 (TE-11): > 8 µM
IC50 (TE-9): > 8 µM
IC50 (TGBC24TKB): > 8 µM
IC50 (TGW): > 8 µM
IC50 (no-10): > 8 µM
IC50 (COLO-320-HSR): 2.9 µM
IC50 (COLO-684): 5.84 µM

OC[C@H](Cc1ccccc1)Nc1nc(Oc2ccc3c(c2)CCC3)nc2c1ncn2Cc1ccc(-c2ccccc2)cc1
IC50 (COLO-824): > 10.2 µM
IC50 (CW-2): > 10.2 µM
IC50 (DB): 6.68 µM
IC50 (DEL): > 10.2 µM
IC50 (DMS-114): > 10.2 µM
IC50 (DSH1): 6.82 µM
IC50 (ES3): 6.65 µM
IC50 (ES8): > 10.2 µM
IC50 (EOL1): 1.88 µM
IC50 (GB-1): 5.25 µM
IC50 (GCIY): > 10.2 µM
IC50 (GR-ST): 5.51 µM
IC50 (GT3TKB): > 10.2 µM
IC50 (HAL-01): 9.16 µM
IC50 (HH): > 10.2 µM
IC50 (JAR): > 10.2 µM
IC50 (K5): > 10.2 µM
IC50 (KM-H2): > 10.2 µM
IC50 (LB1047-RCC): > 10.2 µM
IC50 (LB2241-RCC): > 10.2 µM
IC50 (LS-123): 9.49 µM
IC50 (LS-411N): 8.51 µM
IC50 (MC116): > 10.2 µM
IC50 (MHH-NB-11): > 10.2 µM
IC50 (MHH-PREB-1): > 10.2 µM
IC50 (MLMA): > 10.2 µM
IC50 (NB6): > 10.2 µM
IC50 (NCI-H1650): > 10.2 µM
IC50 (NCI-H526): > 10.2 µM
IC50 (NMC-G1): > 10.2 µM
IC50 (RS4-11): > 10.2 µM
IC50 (SCC-15): > 10.2 µM
IC50 (SF-268): > 10.2 µM
IC50 (SJSA-1): 2.56 µM
IC50 (SW872): 10.2 µM
IC50 (SW982): > 10.2 µM
IC50 (8-MG-BA): 3.54 µM
IC50 (A253 cell line): > 10.2 µM
IC50 (A498): > 10.2 µM
IC50 (BB65-RCC): 7.84 µM
IC50 (BE-13): > 10.2 µM
IC50 (BT-474): > 10.2 µM
IC50 (C2BBe1): > 10.2 µM
IC50 (TE-11): > 10.2 µM
IC50 (TE-9): > 10.2 µM
IC50 (TGBC24TKB): > 10.2 µM
IC50 (TGW): > 10.2 µM
IC50 (no-10): > 10.2 µM
IC50 (COLO-320-HSR): > 10.2 µM
IC50 (COLO-684): > 10.2 µM
